The structures appear in SMILES notation.

For the assay, the target named is T1, human PAH with the R408W mutation (Homo sapiens, UniProt P00439, R408W).
T1 construct: expressed in transfected cells
T1 sequence (P00439 1-452 R408W): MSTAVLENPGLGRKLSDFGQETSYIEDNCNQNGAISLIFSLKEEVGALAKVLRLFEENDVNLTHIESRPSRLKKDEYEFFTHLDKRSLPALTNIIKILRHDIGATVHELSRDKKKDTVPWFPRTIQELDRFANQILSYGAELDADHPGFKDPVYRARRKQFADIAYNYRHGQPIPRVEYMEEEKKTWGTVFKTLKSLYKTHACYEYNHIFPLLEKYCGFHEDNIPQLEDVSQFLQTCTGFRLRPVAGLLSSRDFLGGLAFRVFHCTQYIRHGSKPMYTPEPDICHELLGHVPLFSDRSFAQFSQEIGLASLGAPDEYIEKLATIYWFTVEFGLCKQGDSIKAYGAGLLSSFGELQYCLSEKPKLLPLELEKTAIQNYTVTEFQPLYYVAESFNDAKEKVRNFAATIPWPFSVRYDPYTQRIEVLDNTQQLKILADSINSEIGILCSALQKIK
Briefly: Cell Based Phenylalanine Flux Assay.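 Note: after compound treatment, cells received sepiapterin plus isotope-labelled Phenylalanine for 4 hours, then labelled Tyrosine in the medium was quantified, 10-point 2-fold dilution series run in duplicate.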 The note with it: A375 cells expressing human PAH R408W; 24 hrs compound incubation; 13C-Tyrosine by LC-MS; average where tested multiple times; read-out: AC50.
Regarding `O=C(c1oc(-c2ccccn2)nc1C1CC1)N1CCc2[nH]cnc2[C@@H]1c1cc2c(C(F)(F)F)cccn2n1` [Example 2125, (R)-(4-cyclopropyl-2-(pyridin-2-yl)oxazol-5-yl)(4-(4-(trifluoromethyl)pyrazolo[1,5-a]pyridin-2-yl)-1,4,6,7-tetrahydro-5H-imidazo[4,5-c]pyridin-5-yl)methanone], the AC50 fell in the range of 1000 to 5000 nM.
The result for `Cc1cccn2nc([C@H]3c4nc[nH]c4CCN3c3ccccn3)cc12` [Example 2126, (R)-4-(4-methylpyrazolo[1,5-a]pyridin-2-yl)-5-(pyridin-2-yl)-4,5,6,7-tetrahydro-1H-imidazo[4,5-c]pyridine] reads more than 5000 nM; that for `Fc1ccc(-c2nnc(N3CCc4[nH]cnc4[C@H]3c3cc4cccc(C(F)(F)F)n4n3)o2)cc1` [Example 2129, (S)-2-(4-fluorophenyl)-5-(4-(7-(trifluoromethyl)pyrazolo[1,5-a]pyridin-2-yl)-1,4,6,7-tetrahydro-5H-imidazo[4,5-c]pyridin-5-yl)-1,3,4-oxadiazole], less than 500 nM; that for `Fc1ccc(-c2nnc(N3CCc4[nH]cnc4[C@@H]3c3cc4cccc(C(F)F)n4n3)o2)cc1` [Example 2130, (R)-2-(4-(7-(difluoromethyl)pyrazolo[1,5-a]pyridin-2-yl)-1,4,6,7-tetrahydro-5H-imidazo[4,5-c]pyridin-5-yl)-5-(4-fluorophenyl)-1,3,4-oxadiazole], more than 5000 nM.
The result for `Fc1ccc(-c2nnc(N3CCc4[nH]cnc4[C@H]3c3cc4cccc(C(F)F)n4n3)o2)cc1` [Example 2131, (S)-2-(4-(7-(difluoromethyl)pyrazolo[1,5-a]pyridin-2-yl)-1,4,6,7-tetrahydro-5H-imidazo[4,5-c]pyridin-5-yl)-5-(4-fluorophenyl)-1,3,4-oxadiazole] reads less than 500 nM.
The figure for `Fc1cccc(F)c1-c1nnc(N2CCc3[nH]cnc3[C@@H]2c2cc3cccc(C(F)(F)F)n3n2)o1` [Example 2132, (R)-2-(2,6-difluorophenyl)-5-(4-(7-(trifluoromethyl)pyrazolo[1,5-a]pyridin-2-yl)-1,4,6,7-tetrahydro-5H-imidazo[4,5-c]pyridin-5-yl)-1,3,4-oxadiazole] is 1000 to 5000 nM; for `Fc1cccc(F)c1-c1nnc(N2CCc3[nH]cnc3[C@H]2c2cc3cccc(C(F)(F)F)n3n2)o1` [Example 2133, (S)-2-(2,6-difluorophenyl)-5-(4-(7-(trifluoromethyl)pyrazolo[1,5-a]pyridin-2-yl)-1,4,6,7-tetrahydro-5H-imidazo[4,5-c]pyridin-5-yl)-1,3,4-oxadiazole] it is less than 500 nM; for `Fc1cccc(N2CCc3[nH]cnc3[C@@H]2c2cc3ccccn3n2)n1` [Example 2134, (R)-5-(6-fluoropyridin-2-yl)-4-(pyrazolo[1,5-a]pyridin-2-yl)-4,5,6,7-tetrahydro-1H-imidazo[4,5-c]pyridine] it is 1000 to 5000 nM.
As to `Fc1cccc(N2CCc3[nH]cnc3[C@H]2c2cc3ccccn3n2)n1` [Example 2135, (S)-5-(6-fluoropyridin-2-yl)-4-(pyrazolo[1,5-a]pyridin-2-yl)-4,5,6,7-tetrahydro-1H-imidazo[4,5-c]pyridine], the AC50 is less than 500 nM.
With `FC(F)(F)c1ccc(N2CCc3[nH]cnc3[C@@H]2c2cc3cccc(Cl)n3n2)nc1` [Example 2137, (R)-4-(7-chloropyrazolo[1,5-a]pyridin-2-yl)-5-(5-(trifluoromethyl)pyridin-2-yl)-4,5,6,7-tetrahydro-1H-imidazo[4,5-c]pyridine], the AC50 is more than 5000 nM.
Turning to `FC(F)c1cccc2cc([C@@H]3c4nc[nH]c4CCN3c3ccc(C(F)(F)F)cn3)nn12` [Example 2138, (S)-4-(7-(difluoromethyl)pyrazolo[1,5-a]pyridin-2-yl)-5-(5-(trifluoromethyl)pyridin-2-yl)-4,5,6,7-tetrahydro-1H-imidazo[4,5-c]pyridine], the AC50 was less than 500 nM.
The result for `O=C(c1cnc(C2CC2)o1)N1CCc2[nH]cnc2[C@H]1c1cc2c(C(F)(F)F)cccn2n1` [Example 2140, (S)-(2-cyclopropyloxazol-5-yl)(4-(4-(trifluoromethyl)pyrazolo[1,5-a]pyridin-2-yl)-1,4,6,7-tetrahydro-5H-imidazo[4,5-c]pyridin-5-yl)methanone] reads less than 500 nM; that for `CC(C)(C)c1ncc(C(=O)N2CCc3[nH]cnc3[C@H]2c2cc3c(C(F)(F)F)cccn3n2)o1` [Example 2142, (S)-(2-(tert-butyl)oxazol-5-yl)(4-(4-(trifluoromethyl)pyrazolo[1,5-a]pyridin-2-yl)-1,4,6,7-tetrahydro-5H-imidazo[4,5-c]pyridin-5-yl)methanone], less than 500 nM.
The result for `CC(C)(F)c1ncc(C(=O)N2CCc3[nH]cnc3[C@H]2c2cc3c(C(F)(F)F)cccn3n2)o1` [Example 2144, (S)-(2-(2-fluoropropan-2-yl)oxazol-5-yl)(4-(4-(trifluoromethyl)pyrazolo[1,5-a]pyridin-2-yl)-1,4,6,7-tetrahydro-5H-imidazo[4,5-c]pyridin-5-yl)methanone] reads less than 500 nM; that for `CC(C)c1cccn2nc([C@H]3c4nc[nH]c4CCN3c3ccc(C(F)(F)F)cn3)cc12` [Example 2149, (R)-4-(4-isopropylpyrazolo[1,5-a]pyridin-2-yl)-5-(5-(trifluoromethyl)pyridin-2-yl)-4,5,6,7-tetrahydro-1H-imidazo[4,5-c]pyridine], more than 5000 nM.
The figure for `COc1cccn2nc([C@H]3c4nc[nH]c4CCN3c3nnc(C(F)F)o3)cc12` [Example 2150, (R)-2-(difluoromethyl)-5-(4-(4-methoxypyrazolo[1,5-a]pyridin-2-yl)-1,4,6,7-tetrahydro-5H-imidazo[4,5-c]pyridin-5-yl)-1,3,4-oxadiazole] is more than 5000 nM; for `COc1cccn2nc([C@@H]3c4nc[nH]c4CCN3c3nnc(C(F)F)o3)cc12` [Example 2151, (S)-2-(difluoromethyl)-5-(4-(4-methoxypyrazolo[1,5-a]pyridin-2-yl)-1,4,6,7-tetrahydro-5H-imidazo[4,5-c]pyridin-5-yl)-1,3,4-oxadiazole] it is less than 500 nM; for `FC(F)Oc1cccn2nc([C@@H]3c4nc[nH]c4CCN3c3nnc(C(F)F)o3)cc12` [Example 2153, (S)-2-(4-(4-(difluoromethoxy)pyrazolo[1,5-a]pyridin-2-yl)-1,4,6,7-tetrahydro-5H-imidazo[4,5-c]pyridin-5-yl)-5-(difluoromethyl)-1,3,4-oxadiazole] it is less than 500 nM.
`Cc1cccn2nc([C@@H]3c4nc[nH]c4CCN3c3nnc(-c4cnccn4)o3)cc12` [Example 2157, (S)-2-(4-(4-methylpyrazolo[1,5-a]pyridin-2-yl)-1,4,6,7-tetrahydro-5H-imidazo[4,5-c]pyridin-5-yl)-5-(pyrazin-2-yl)-1,3,4-oxadiazole]: the AC50 is 500 to 1000 nM.
As to `FC(F)(F)c1cccn2nc([C@@H]3c4nc[nH]c4CCN3c3nnc(-c4ccncn4)o3)cc12` [Example 2162, (S)-2-(pyrimidin-4-yl)-5-(4-(4-(trifluoromethyl)pyrazolo[1,5-a]pyridin-2-yl)-1,4,6,7-tetrahydro-5H-imidazo[4,5-c]pyridin-5-yl)-1,3,4-oxadiazole], the AC50 fell in the range of 500 to 1000 nM.
The result for `FC(F)(F)c1cccn2nc([C@H]3c4nc[nH]c4CCN3c3nnc(-c4ccncn4)o3)cc12` [Example 2163, (R)-2-(pyrimidin-4-yl)-5-(4-(4-(trifluoromethyl)pyrazolo[1,5-a]pyridin-2-yl)-1,4,6,7-tetrahydro-5H-imidazo[4,5-c]pyridin-5-yl)-1,3,4-oxadiazole] reads more than 5000 nM.
The figure for `COc1cccn2nc([C@@H]3c4nc[nH]c4CCN3c3nnc(C(F)(F)F)o3)cc12` [Example 2164, (S)-2-(4-(4-methoxypyrazolo[1,5-a]pyridin-2-yl)-1,4,6,7-tetrahydro-5H-imidazo[4,5-c]pyridin-5-yl)-5-(trifluoromethyl)-1,3,4-oxadiazole] is less than 500 nM.
The figure for `COc1cccn2nc([C@H]3c4nc[nH]c4CCN3c3nnc(C(F)(F)F)o3)cc12` [Example 2165, (R)-2-(4-(4-methoxypyrazolo[1,5-a]pyridin-2-yl)-1,4,6,7-tetrahydro-5H-imidazo[4,5-c]pyridin-5-yl)-5-(trifluoromethyl)-1,3,4-oxadiazole] is more than 5000 nM.
On to `FC(F)c1nnc(N2CCc3[nH]cnc3[C@@H]2c2cc3c(C4CC4)cccn3n2)o1` [Example 2166, (R)-2-(4-(4-cyclopropylpyrazolo[1,5-a]pyridin-2-yl)-1,4,6,7-tetrahydro-5H-imidazo[4,5-c]pyridin-5-yl)-5-(difluoromethyl)-1,3,4-oxadiazole], for which the AC50 was more than 5000 nM.
The figure for `CC(C)c1cccn2nc([C@H]3c4nc[nH]c4CCN3c3nnc(C4CC4)o3)cc12` [Example 2168, (R)-2-cyclopropyl-5-(4-(4-isopropylpyrazolo[1,5-a]pyridin-2-yl)-1,4,6,7-tetrahydro-5H-imidazo[4,5-c]pyridin-5-yl)-1,3,4-oxadiazole] is 1000 to 5000 nM; for `CC(C)c1cccn2nc([C@@H]3c4nc[nH]c4CCN3c3nnc(C4CC4)o3)cc12` [Example 2169, (S)-2-cyclopropyl-5-(4-(4-isopropylpyrazolo[1,5-a]pyridin-2-yl)-1,4,6,7-tetrahydro-5H-imidazo[4,5-c]pyridin-5-yl)-1,3,4-oxadiazole] it is less than 500 nM.

The term AC50 denotes the concentration at which the activity in the assay is half-maximal.

These data come from patent US20230365592A1 (Agios Pharmaceuticals, Inc., priority 2022, published 2023).
